Reference: article PMC10110893, “[…]-derived synthetic cannabinoids inhibit T-type calcium channels with divergent effects on seizures in rodent models of epilepsy” (Frontiers in Physiology, 2023)

Experiments:
[1] = system: 6 Hz-induced seizures in Swiss mice; assay: 6 Hz seizure model in mice; type: in vivo, mouse
Procedure: Swiss outbred mice used in 6 Hz seizure experiments were purchased from Australian Resources Centre (stock ARC(S); Canning Vale, Australia) and single housed for 1 week prior to experimentation to prevent fighting.
6 Hz seizures were induced in Swiss male mice (9–10 weeks old) using an Ugo Basile electroconvulsive therapy unit (Model 57,800; Gemonio, Italy). Mice were pre-treated with vehicle, SB2193 (10 mg/kg, 30 mg/kg, 100 mg/kg) or valproic acid (300 mg/kg) via i.p. injection 15 min before seizure induction based on the time-to-peak brain concentration determined in pharmacokinetic studies. […] A drop of 0.5% tetracaine was applied to both corneas immediately following the i.p. injection to provide local anaesthesia. Immediately prior to the electrical stimulation, saline was applied to each cornea to ensure electrical conductivity. Corneal electroshocks were administered at 44 mA, 6 Hz, 3 s shock duration, with a […] rectangular pulse width. Mice were shocked and scored by an observer blinded to treatment for the presence of twitching of the vibrissae, stun, myoclonus, rearing, forelimb clonus, and/or Straub tail. […] The ED50 for SB2193 was calculated using computer-assisted log-probit linear regression analysis ([Litchfield and Wilcoxon, 1949]). A χ^2 test was performed to assess statistical significance.

[2] = system: cannabinoid CB1 receptors; set-up: method as in Kevin et al., 2022; settings: ref Kevin et al., 2022; cited from earlier work
[3] = system: Genetic Absence Epilepsy Rat from Strasbourg (GAERS); assay: Spike-and-wave discharges (EEG) in GAERS; type: in vivo
Procedure: GAERS experiments were conducted in accordance with the standards of the Canadian Council on Animal Care and approved by the University of Saskatchewan Animal Research Ethics Board (protocol 20130118). GAERS were initially sourced from the University of Melbourne to establish a Canadian GAERS colony in 2010 ([Powell et al., 2014]) and weanlings were provided by the Snutch Laboratory at the University of British Columbia to the University of Saskatchewan in 2013 (snutchlab.msl.ubc.ca) ([Marks et al., 2016]; [Marks et al., 2019]). GAERS were maintained on a 12 h light/dark cycle with lights on at 0700 and access to food and water ad libitum except during EEG recordings.
GAERS display reliable spike and wave discharges (SWD) characteristic of childhood absence epilepsy (CAE) ([Tringham et al., 2012]; [Marks et al., 2019]; [Roebuck et al., 2021]; [McElroy et al., 2022]; [Roebuck et al., 2022]). Experiments were conducted in male (n = 11; two removed due to poor recording integrity) and female (n = 5) GAERS. Group sizes were determined based on previous experiments and availability of age, sex, and litter matched animals ([Marks et al., 2019]; [McElroy et al., 2022]; [Roebuck et al., 2022]). Animals were well handled and habituated to the recording protocol prior to testing. Baseline recordings were performed prior to sessions with drug treatment and SB2193 (10, 30, 100 mg/kg) or vehicle (5 mL/kg) was administered (i.p.) ∼15–20 min prior to recordings using a within-subjects design (5–7 days washout periods between treatments). SB2193 was freshly prepared in ethanol-Kolliphor (Sigma Aldrich)-saline (1:1:18 ratio).
Construction and implantation of electrodes proceeded according to established protocols ([Farrell et al., 2018]; [Marks et al., 2019]; [McElroy et al., 2022]; [Roebuck et al., 2022]). Surgeries were performed under isoflurane anaesthesia with buprenorphine, anafen, and bupivicaine (topical) used as analgesics. Bipolar electrodes were chronically implanted bilaterally in somatosensory cortex (A/P 0.6 mm, M/L 5.5 mm, D/V −3.0 mm, relative to bregma) ([Polack et al., 2007]). Implants were secured with 3.2 mm stainless steel screws (one served as a ground) and dental cement. Animals were given a 1-week recovery period before habituation and testing.
Following recovery from surgery, animals were handled for 3–4 days and habituated to the EEG tether and hook-up process at least once before baseline recordings. Local field potentials (LFP) were acquired by tethered EEG (Grass Technologies), amplified 5,000x, and digitized at 100 Hz ([Farrell et al., 2018]; [Marks et al., 2019]; [McElroy et al., 2022]; [Roebuck et al., 2022]). Recordings (4 h) were conducted in two clear Plexiglas boxes (32 cm × 32 cm) and treatments were randomized such that each animal received each treatment. During recording sessions, animals were prevented from sleeping with gentle taps on the chamber door as necessary. Animals were perfused to confirm electrode placement following testing.
SWDs were analysed using a custom MATLAB (MathWorks) script developed by Dr. Stuart Cain and Jeff LeDue at the University of British Columbia. SWDs were assessed between 7 and 12 Hz and defined as bursts > 3x baseline amplitude >0.5 s as previously described ([Powell et al., 2014]; [Farrell et al., 2018]; [Marks et al., 2019]; [Roebuck et al., 2021]; [McElroy et al., 2022]; [Roebuck et al., 2022]). SWDs were analysed semi-automatically using Matlab and manually confirmed by a researcher blinded to treatment. A second researcher re-analysed a subset of files and interrater reliability was confirmed. Treatment data are normalized to initial non-treatment baseline data (e.g., % change) to account for SWD variability between subjects. Raw SWD data are also reported for comparison.
Time-binned data were analysed using a two-way analysis of variance (ANOVA) with factors of treatment (vehicle, 10, 30, 100 mg/kg SB2193) and time (1, 2, 3, 4 h post-treatment). […]

[4] = 100 mg/kg i.p., 4 h EEG recording
[5] = 30 and 100 mg/kg i.p., 4 h EEG recording

In the case of `CCCCCn1cc(C(=O)N2CCN(C(=O)OC(C)(C)C)CC2)c2ccccc21` [SB2193], the “percentage of mice protected from seizures compared to vehicle” value ([1]; 100 mg/kg i.p., 15 min before 6 Hz 44 mA stimulation, n = 10) is listed as “significantly increased”, the ED50 ([1]; Mus musculus, ip, log-probit analysis, estimated) is listed as about 120 mg/kg and the “activity at cannabinoid CB1 receptors” value [2] is listed as “minimal activity”. The “SWD incidence, raw count data, compared to vehicle” value ([3]; 30 mg/kg i.p., 4 h EEG recording) was “significantly increased”, the “SWD average duration, raw data, compared to vehicle” value [3, 4] was “significantly increased” and the “average SWD duration, normalized to baseline, compared to vehicle” value [3, 4] was “increased”. The SWD frequency ([3]; 10, 30, 100 mg/kg i.p., 4 h EEG recording) was “No changes”, the “effects on SWDs in the first hour following administration” value ([3]; 10, 30, 100 mg/kg i.p., first hour) was “No significant effects” and the “SWD (total) duration, normalized to baseline, compared to vehicle” value [3, 5] was “significantly increased”. The “SWD incidence, normalized to baseline, compared to vehicle” value [3, 5] was “significantly increased” and the “SWD total duration, raw data, compared to vehicle” value [3, 5] was “significantly increased”.
